For one assay, the target named is IDO1 (Homo sapiens, UniProt P14902). Kind of assay: IDO1 Cellular Assay in Hela Cells Stimulated with IFNγ. To be noted: Hela cells stimulated with IFNγ 100 ng/mL, 300 uM L-tryptophan, about 48 hours, fluorescence readout. More on the design: endogenous in cells; host or cells: HeLa cells stimulated with IFNγ (100 ng/mL). The assay is classed as cell-based. How it is done:
IDO1 Cellular Assay in Hela Cells Stimulated with IFNγ
Hela cells were cultured in complete Hela culture medium (90% EMEM, 10% heat-inactivated fetal bovine serum) and expanded to about 1×10^9 cells. The cells were then collected and frozen down at 1×10^7 cells/vial in 1 mL frozen medium (90% complete Hela culture medium, 10% DMSO)
Compounds to be tested were serially diluted in ten 3-fold steps in DMSO starting from 10 mM DMSO stocks in Echo low volume plate(s).
Frozen Hela cells were thawed and transferred into Hela assay medium (99% complete Hela culture medium, 1% Pen/Strep) with 20 mL medium/vial of cells. The cells were spun down at 250 g in a table top centrifuge for 5 min and suspended in same volume of Hela assay medium. The cells were then counted and adjusted to a density of 2×10^5 cells/ml in Hela assay medium. Sterile L-tryptophan were added to the cells with final concentration of 300 uM L-tryptophan. A small aliquot (2 mL/plate) of Hela cells were set aside and were not treated with IFNγ, to serve as the Max-E control.
Hela cells with and without IFNγ were dispensed to the respective wells of 384-well assay plates containing the compounds. The plates were incubated for about 48 hours at a 37° C., 5% CO2 incubator. Afterwards, […] of 0.5 M methyl isonipecotate in dimethyl sulfoxide were added into each well and the plates were sealed and incubated at 37° C. without CO2 overnight. The plates were centrifuged for 1 min at 200×g. The resulting fluorescence was measured in a Spectramax plate reader (Molecular Devices) with a 400 nm excitation filter and a 510 nm emission filter.
Potencies were calculated by linear least squares fit to the four parameter logistic IC50 equation.

The target in a further assay is T1, TDO (Homo sapiens, UniProt P48775).
T1 construct: endogenous in cells; host or cells: SW48 cells (A2780 cells as control with minimal TDO activity)
T1 sequence (P48775 whole entry): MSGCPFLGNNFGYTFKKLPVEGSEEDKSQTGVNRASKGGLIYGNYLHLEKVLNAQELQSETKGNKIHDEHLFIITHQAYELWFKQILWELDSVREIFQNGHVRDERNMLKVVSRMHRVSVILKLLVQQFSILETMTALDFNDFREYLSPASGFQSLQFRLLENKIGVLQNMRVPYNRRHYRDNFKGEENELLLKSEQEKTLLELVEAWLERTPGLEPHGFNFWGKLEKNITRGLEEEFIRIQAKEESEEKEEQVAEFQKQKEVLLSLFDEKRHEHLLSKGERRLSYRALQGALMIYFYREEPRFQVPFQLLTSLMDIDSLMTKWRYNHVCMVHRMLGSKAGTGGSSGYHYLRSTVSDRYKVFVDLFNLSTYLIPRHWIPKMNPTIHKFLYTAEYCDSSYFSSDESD
Kind of assay: TDO Cellular Assay in Frozen SW48 Cells. The assay is classed as cell-based. The note with it: 300 uM L-tryptophan, about 48 hours, fluorescence readout. How it is done:
TDO Cellular Assay in Frozen SW48 Cells
SW48 cells were cultured in complete RPMI culture medium (90% RPMI, 10% heat-inactivated fetal bovine serum).
Compounds to be tested were serially diluted in ten 3-fold steps in DMSO starting from 10 mM DMSO stocks in Echo low volume plate(s). […] The cells were spun down at 350 g in a table top centrifuge for 5 minutes and suspended in same volume of RPMI assay medium. […] Sterile L-tryptophan (Sigma, Cat # T0254) was added to the cells with final concentration of 300 uM.
SW48 and A2780 cells were dispensed to the respective wells of 384-well assay plates containing the compounds. The plates were incubated for about 48 hours at a 37° C., 5% CO2 incubator. Afterwards, 12 μL of 0.5 M ethyl isonipecotate (Sigma Aldrich, Cat # E33505) in dimethyl sulfoxide were added into each well and the plates were sealed and incubated at 37° C. without CO2 overnight. The plates were centrifuged for 1 minute at 200×g. The resulting fluorescence was measured in a Spectramax plate reader (Molecular Devices) with a 400 nm excitation filter and a 510 nm emission filter.
The fluorescence intensity of each well was corrected for the background observed in wells with A2780 cells and was expressed as a fraction of the intensity observed in wells of SW48 cells and DMSO only. Potencies were calculated by linear least squares fit to the four parameter logistic IC50 equation.

Some results are limits rather than exact numbers.

Chain of IDO1 (P14902 whole entry): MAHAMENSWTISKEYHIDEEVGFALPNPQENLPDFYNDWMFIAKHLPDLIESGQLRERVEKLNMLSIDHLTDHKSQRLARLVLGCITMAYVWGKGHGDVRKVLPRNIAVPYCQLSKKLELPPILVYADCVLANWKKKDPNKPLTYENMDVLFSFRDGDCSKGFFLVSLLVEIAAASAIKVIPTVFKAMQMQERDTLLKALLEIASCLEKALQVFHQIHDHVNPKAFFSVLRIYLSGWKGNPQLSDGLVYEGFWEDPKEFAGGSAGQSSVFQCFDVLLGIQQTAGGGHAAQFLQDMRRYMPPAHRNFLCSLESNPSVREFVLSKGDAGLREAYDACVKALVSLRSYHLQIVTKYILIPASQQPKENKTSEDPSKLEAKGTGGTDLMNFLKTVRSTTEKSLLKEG

For the compound `CC1CC1NC(=O)C1(c2ccc(NC(=O)c3cccc(Cl)c3)cc2)CCC1` (single isomer, unassigned) [Example 22, 3-chloro-N-(4-(1-((2-methylcyclopropyl)carbamoyl)cyclobutyl)phenyl)benzamide], the IC50 was 35 nM against IDO1 and no less than 10000 nM at TDO.

On to `CC1CC1NC(=O)C1(c2ccc(NC(=O)c3cccc(Cl)c3)cc2)CCC1` (single isomer, unassigned) [Example 23, 3-chloro-N-(4-(1-((2-methylcyclopropyl)carbamoyl)cyclobutyl)phenyl)benzamide], for which the results for the IC50 at IDO1 and on TDO were 78 nM and no less than 10000 nM, respectively.

For the compound `CCCC(=O)NC1(c2ccc(NC(=O)c3cccc(Cl)c3)cc2)CCC1` [Example 1, N-(4-(1-Butyramidocyclobutyl)phenyl)-3-chlorobenzamide], the concentration for half-maximal inhibition (IC50) at IDO1 is 48 nM.

With `O=C(Nc1ccc(C2(NC(=O)c3cnccn3)CCC2)cc1)c1cccc(Cl)c1` [Example 3, N-(1-{4-[(3-chlorobenzene-1-carbonyl)amino]phenyl}cyclobutyl)pyrazine-2-carboxamide], the IC50 on IDO1 is 131 nM; on TDO, no less than 10000 nM.

For the compound `O=C(Nc1ccc(C2(NC(=O)c3ncccc3Cl)CCC2)cc1)c1cccc(Cl)c1` [Example 4, 3-chloro-N-(1-{4-[(3-chlorobenzene-1-carbonyl)amino]phenyl}cyclobutyl)pyridine-2-carboxamide], the IC50 against IDO1 was 136 nM; against TDO it was no less than 10000 nM.

With `O=C(Nc1ccc(C2(NC(=O)c3cc(Cl)ccn3)CCC2)cc1)c1cccc(Cl)c1` [Example 5, 4-chloro-N-(1-{4-[(3-chlorobenzene-1-carbonyl)amino]phenyl}cyclobutyl)pyridine-2-carboxamide], the values for the IC50 against IDO1 and against TDO were 136 nM and no less than 10000 nM, respectively.

Consider `Cn1ccnc1C(=O)NC1(c2ccc(NC(=O)c3cccc(Cl)c3)cc2)CCC1` [Example 6, N-(1-{4-[(3-chlorobenzene-1-carbonyl)amino]phenyl}cyclobutyl)-1-methyl-1H-imidazole-2-carboxamide], for which the IC50 against IDO1 was 577 nM; against TDO it was no less than 10000 nM.

As to `O=C(Nc1ccc(C2(NC(=O)c3ccc(Cl)c(F)c3)CCC2)cc1)c1cccc(Cl)c1` [Example 8, 4-chloro-N-(1-{4-[(3-chlorobenzene-1-carbonyl)amino]phenyl}cyclobutyl)-3-fluorobenzamide], the IC50 against IDO1 was 4 nM; on TDO it was no less than 10000 nM.

Take `O=C(Nc1ccc(C2(NC(=O)c3ccc(Cl)cn3)CCC2)cc1)c1cccc(Cl)c1` [Example 9, 5-chloro-N-(1-{4-[(3-chlorobenzene-1-carbonyl)amino]phenyl}cyclobutyl)pyridine-2-carboxamide]: the IC50 against IDO1 was 11 nM; at TDO, no less than 10000 nM.

As for `O=C(Nc1ccc(C2(NC(=O)c3ccc(F)c(F)c3)CCC2)cc1)c1cccc(Cl)c1` [Example 10, N-(1-{4-[(3-chlorobenzene-1-carbonyl)amino]phenyl}cyclobutyl)-3,4-difluorobenzamide], the IC50 on IDO1 is 14 nM; against TDO, no less than 10000 nM.

With `O=C(Nc1ccc(C2(NC(=O)c3ccc(Cl)c(Cl)c3)CCC2)cc1)c1cccc(Cl)c1` [Example 11, 3,4-dichloro-N-(1-{4-[(3-chlorobenzene-1-carbonyl)amino]phenyl}cyclobutyl)benzamide], the IC50 is 19 nM on IDO1 and no less than 10000 nM at TDO.

Turning to `Cn1ccc(C(=O)NC2(c3ccc(NC(=O)c4cccc(Cl)c4)cc3)CCC2)n1` [Example 13, N-(1-{4-[(3-chlorobenzene-1-carbonyl)amino]phenyl}cyclobutyl)-1-methyl-1H-pyrazole-3-carboxamide], the IC50 against IDO1 was 30 nM; against TDO, no less than 10000 nM.

Turning to `O=C(Nc1ccc(C2(NC(=O)c3cocn3)CCC2)cc1)c1cccc(Cl)c1` [Example 16, N-(1-{4-[(3-chlorobenzene-1-carbonyl)amino]phenyl}cyclobutyl)-1,3-oxazole-4-carboxamide], the results for the half-inhibitory concentration (IC50) against IDO1 and on TDO were 92 nM and no less than 10000 nM, respectively.

Regarding `O=C(Nc1ccc(C2(C(=O)Nc3ccc(Cl)cc3)CCC2)cc1)c1cccc(Cl)c1` [Example 24, 3-chloro-N-(4-{1-[(4-chlorophenyl)carbamoyl]cyclobutyl}phenyl) benzamide], the results for the IC50 at IDO1 and against TDO were 3 nM and no less than 10000 nM, respectively.

Turning to `O=C(Nc1ccc(C2(C(=O)Nc3ccc(F)cc3F)CCC2)cc1)c1cccc(Cl)c1` [Example 25, 3-chloro-N-(4-{1-[(2,4-difluorophenyl)carbamoyl]cyclobutyl}phenyl) benzamide], the IC50 was 3 nM against IDO1 and no less than 10000 nM against TDO.

`O=C(Nc1ccc(C2(C(=O)NC3CC(F)(F)C3)CCC2)cc1)c1cccc(Cl)c1` [Example 38, 3-chloro-N-(4-{1-[(3,3-difluorocyclobutyl)carbamoyl]cyclobutyl}phenyl) benzamide] came in with an IC50 at IDO1 of 31 nM. That is a double-digit nanomolar value.

On to `O=C(Nc1ccc(C2(C(=O)NC34CC(C3)C4)CCC2)cc1)c1cccc(Cl)c1` [Example 39, N-(4-{1-[(bicyclo[1.1.1]pentan-1-yl)carbamoyl]cyclobutyl}phenyl)-3-chlorobenzamide], for which half-maximal inhibition at IDO1 (IC50) required 34 nM. This IC50 and that of the compound before are within 1.5-fold of each other.

Consider `CC(NC(=O)C1(c2ccc(NC(=O)c3cccc(Cl)c3)cc2)CCC1)C1CC1` (stereo not drawn) [Example 41, 3-chloro-N-(4-{1-[(1-cyclopropylethyl)carbamoyl]cyclobutyl}phenyl) benzamide], for which the IC50 on IDO1 is 101 nM. This IC50 lies about 3-fold higher than the previous one.

Compound `CC(NC(=O)C1(c2ccc(NC(=O)c3cccc(Cl)c3)cc2)CCC1)C1CCCO1` (stereo not drawn) [Example 43, 3-chloro-N-[4-(1-{[1-(oxolan-2-yl)ethyl]carbamoyl}cyclobutyl)phenyl]benzamide] displayed an IC50 against IDO1 of 660 nM. Against the preceding compound, the IC50 is about 6.5-fold higher.

Compound `CC1CC1NC(=O)C1(c2ccc(NC(=O)c3cccc(Cl)c3)cc2)CCC1` (stereo not drawn) [Example 46, 3-chloro-N-(4-{1-[(2-methylcyclopropyl)carbamoyl]cyclobutyl}phenyl) benzamide] registered a concentration for half-maximal inhibition (IC50) on IDO1 of 13 nM.

`O=C(Nc1ccc(C2(C(=O)NCCC(F)(F)F)CCC2)cc1)c1cccc(Cl)c1` [Example 47, 3-chloro-N-(4-{1-[(3,3,3-trifluoropropyl)carbamoyl]cyclobutyl}phenyl) benzamide] returned an IC50 against IDO1 of 26 nM.

Consider `O=C(Nc1ccc(C2(C(=O)NCC3CC3)CCC2)cc1)c1cccc(Cl)c1` [Example 48, 3-chloro-N-(4-{1-[(cyclopropylmethyl)carbamoyl]cyclobutyl}phenyl)benzamide], for which the 50% inhibitory concentration (IC50) on IDO1 worked out at 27 nM.

On IDO1, `CCNC(=O)C1(c2ccc(NC(=O)c3cccc(Cl)c3)cc2)CCC1` [Example 50] returned a 50% inhibitory concentration (IC50) of 151 nM.

On to `CCCNC(=O)C1(c2ccc(NC(=O)c3nnsc3C)cc2)CCC1` [Example 54, 5-Methyl-N-(4-(1-(propylcarbamoyl)cyclobutyl)phenyl)-1,2,3-thiadiazole-4-carboxamide], for which inhibition against IDO1 was half-maximal at 500 nM (IC50). Compared with the last compound, the IC50 is about 3.3-fold higher.

Take `CCCNC(=O)C1(c2ccc(NC(=O)c3ccc(CN)cc3)cc2)CCC1` [Example 55, 4-(aminomethyl)-N-{4-[1-(propylcarbamoyl)cyclobutyl]phenyl} benzamide]: the half-inhibitory concentration (IC50) at IDO1 came out at 613 nM.

For `CCCNC(=O)C1(c2ccc(NC(=O)c3cc(C)no3)cc2)CCC1` [Example 56, 3-methyl-N-{4-[1-(propylcarbamoyl)cyclobutyl]phenyl}-1,2-oxazole-5-carboxamide], at IDO1, the IC50 amounted to 923 nM.

`CCCNC(=O)C1(c2ccc(NC(=O)c3coc(CC)n3)cc2)CCC1` [Example 57, 2-ethyl-N-{4-[1-(propylcarbamoyl)cyclobutyl]phenyl}-1,3-oxazole-4-carboxamide] gave an IC50 on IDO1 of 1710 nM.

`CCCNC(=O)C1(c2ccc(NC(=O)c3cn4ncccc4n3)cc2)CCC1` [Example 58, N-{4-[1-(propylcarbamoyl)cyclobutyl]phenyl}imidazo[1,2-b]pyridazine-2-carboxamide] had an IC50 on IDO1 of 2010 nM.

The record behind these values is US11319283B2, “Substituted cyclobutylbenzene compounds as indoleamine 2,3-dioxygenase (IDO) inhibitors” (MERCK SHARP & DOHME CORP., priority 2017, dated 2022).
